Data from ChEMBL document CHEMBL4831486, “Design, synthesis and biological evaluation of pleuromutilin-Schiff base hybrids as potent anti-MRSA agents in vitro and in vivo” (Eur J Med Chem, 2021).
In brackets after ≈: the same amount, converted by molar mass.

How the values were obtained:
HepG2 = test: Cytotoxicity against human HepG2 cells assessed as reduced cell viability at 4 ug/ml measured after 16 hrs by MTT assay; format: cell-based; conditions: hepg2, 16 h, dose 4 µg/ml
Staphylococcus aureus [1] = test: Antibacterial activity against Methycillin-resistant Staphylococcus aureus ATCC 43300 assessed as inhibition of bacterial growth measured after 24 hrs by broth dilution method; format: functional
Staphylococcus aureus [2] = test: Bactericidal activity against Staphylococcus aureus 144 assessed as inhibition of bacterial growth measured after 96 hrs by broth dilution method; format: functional
Staphylococcus aureus [3] = test: Antibacterial activity against Staphylococcus aureus AD3 assessed as inhibition of bacterial growth measured after 24 hrs by broth dilution method; format: functional
Escherichia coli [4] = test: Antibacterial activity against Escherichia coli ATCC 25922 assessed as inhibition of bacterial growth measured after 24 hrs by broth dilution method; format: functional
RAW264.7 = test: Cytotoxicity against mouse RAW264.7 cells assessed as reduced cell viability at 4 ug/ml measured after 16 hrs by MTT assay; format: cell-based; conditions: raw264.7, 16 h, dose 4 µg/ml
Staphylococcus aureus [5] = test: Bactericidal activity against Staphylococcus aureus AD3 assessed as inhibition of bacterial growth measured after 96 hrs by broth dilution method; format: functional
Staphylococcus aureus [6] = test: Antibacterial activity against Staphylococcus aureus 144 assessed as inhibition of bacterial growth measured after 24 hrs by broth dilution method; format: functional
Staphylococcus aureus [7] = test: Antibacterial activity against Staphylococcus aureus ATCC 29213 assessed as inhibition of bacterial growth measured after 24 hrs by broth dilution method; format: functional
Escherichia coli [8] = test: Bactericidal activity against Escherichia coli ATCC 25922 assessed as inhibition of bacterial growth measured after 96 hrs by broth dilution method; format: functional
Staphylococcus aureus [9] = test: Bactericidal activity against Staphylococcus aureus ATCC 29213 assessed as inhibition of bacterial growth measured after 96 hrs by broth dilution method; format: functional
Staphylococcus aureus [10] = test: Bactericidal activity against Methycillin-resistant Staphylococcus aureus ATCC 43300 assessed as inhibition of bacterial growth measured after 96 hrs by broth dilution method; format: functional

| SMILES | Activity (HepG2) | MIC (Staphylococcus aureus [1]) [µg/mL] | MBC (Staphylococcus aureus [2]) [µg/mL] | MIC (Staphylococcus aureus [3]) [µg/mL] | MIC (Escherichia coli [4]) [µg/mL] | Activity (RAW264.7) | MBC (Staphylococcus aureus [5]) [µg/mL] | MIC (Staphylococcus aureus [6]) [µg/mL] | MIC (Staphylococcus aureus [7]) [µg/mL] | MBC (Escherichia coli [8]) [µg/mL] | MBC (Staphylococcus aureus [9]) [µg/mL] | MBC (Staphylococcus aureus [10]) [µg/mL] |
| --- | --- | --- | --- | --- | --- | --- | --- | --- | --- | --- | --- | --- |
| C=C[C@]1(C)C[C@@H](OC(=O)CSc2nnc(C)n2/N=C/c2ccc([N+](=O)[O-])cc2)[C@]2(C)[C@H](C)CC[C@]3(CCC(=O)[C@H]32)[C@@H](C)[C@@H]1O | Non-Toxic | 1 (≈ 1.6 µM) | 8 (≈ 12.8 µM) | 2 (≈ 3.21 µM) | > 64 | Non-Toxic | 8 (≈ 12.8 µM) | 2 (≈ 3.21 µM) | 2 (≈ 3.21 µM) | > 64 | 4 (≈ 6.41 µM) | 2 (≈ 3.21 µM) |
| C=C[C@]1(C)C[C@@H](OC(=O)CSc2nnc(C)n2/N=C/c2ccccc2Cl)[C@]2(C)[C@H](C)CC[C@]3(CCC(=O)[C@H]32)[C@@H](C)[C@@H]1O | Non-Toxic | 1 (≈ 1.63 µM) | 4 (≈ 6.52 µM) | 1 (≈ 1.63 µM) | > 64 | Non-Toxic | 4 (≈ 6.52 µM) | 2 (≈ 3.26 µM) | 1 (≈ 1.63 µM) | > 64 | 2 (≈ 3.26 µM) | 2 (≈ 3.26 µM) |
| C=C[C@]1(C)C[C@@H](OC(=O)CO)[C@]2(C)[C@H](C)CC[C@]3(CCC(=O)[C@H]32)[C@@H](C)[C@@H]1O [PLEUROMULIN] | – | 2 (≈ 5.28 µM) | 4 (≈ 10.6 µM) | 2 (≈ 5.28 µM) | > 64 | – | 4 (≈ 10.6 µM) | 2 (≈ 5.28 µM) | 2 (≈ 5.28 µM) | > 64 | 4 (≈ 10.6 µM) | 4 (≈ 10.6 µM) |
| C=C[C@]1(C)C[C@@H](OC(=O)CSc2nnc(C)n2/N=C/c2cccc(C#N)c2)[C@]2(C)[C@H](C)CC[C@]3(CCC(=O)[C@H]32)[C@@H](C)[C@@H]1O | Non-Toxic | 1 (≈ 1.66 µM) | 4 (≈ 6.62 µM) | 2 (≈ 3.31 µM) | > 64 | Non-Toxic | 8 (≈ 13.2 µM) | 2 (≈ 3.31 µM) | 1 (≈ 1.66 µM) | > 64 | 4 (≈ 6.62 µM) | 2 (≈ 3.31 µM) |
| C=C[C@]1(C)C[C@@H](OC(=O)CSc2nnc(C)n2/N=C/c2ccccc2C)[C@]2(C)[C@H](C)CC[C@]3(CCC(=O)[C@H]32)[C@@H](C)[C@@H]1O | Non-Toxic | 1 (≈ 1.69 µM) | 4 (≈ 6.75 µM) | 1 (≈ 1.69 µM) | > 64 | Non-Toxic | 4 (≈ 6.75 µM) | 2 (≈ 3.37 µM) | 1 (≈ 1.69 µM) | > 64 | 2 (≈ 3.37 µM) | 2 (≈ 3.37 µM) |
| C=C[C@]1(C)C[C@@H](OC(=O)CSc2nnc(C)n2/N=C/c2cccc(C)c2)[C@]2(C)[C@H](C)CC[C@]3(CCC(=O)[C@H]32)[C@@H](C)[C@@H]1O | Non-Toxic | 1 (≈ 1.69 µM) | 4 (≈ 6.75 µM) | 1 (≈ 1.69 µM) | > 64 | Non-Toxic | 4 (≈ 6.75 µM) | 2 (≈ 3.37 µM) | 1 (≈ 1.69 µM) | > 64 | 2 (≈ 3.37 µM) | 2 (≈ 3.37 µM) |
| C=C[C@]1(C)C[C@@H](OC(=O)CSc2nnc(C)n2/N=C/c2cccc(F)c2)[C@]2(C)[C@H](C)CC[C@]3(CCC(=O)[C@H]32)[C@@H](C)[C@@H]1O | Non-Toxic | 0.5 (≈ 0.838 µM) | 4 (≈ 6.7 µM) | 1 (≈ 1.68 µM) | > 64 | Non-Toxic | 4 (≈ 6.7 µM) | 2 (≈ 3.35 µM) | 1 (≈ 1.68 µM) | > 64 | 4 (≈ 6.7 µM) | 1 (≈ 1.68 µM) |
| C=C[C@]1(C)C[C@@H](OC(=O)CSc2nnc(C)n2/N=C/c2cccc([N+](=O)[O-])c2)[C@]2(C)[C@H](C)CC[C@]3(CCC(=O)[C@H]32)[C@@H](C)[C@@H]1O | Non-Toxic | 1 (≈ 1.6 µM) | 4 (≈ 6.41 µM) | 2 (≈ 3.21 µM) | > 64 | Non-Toxic | 8 (≈ 12.8 µM) | 2 (≈ 3.21 µM) | 2 (≈ 3.21 µM) | > 64 | 8 (≈ 12.8 µM) | 2 (≈ 3.21 µM) |
| C=C[C@]1(C)C[C@@H](OC(=O)CSc2nnc(C)n2/N=C/c2cccc(O)c2)[C@]2(C)[C@H](C)CC[C@]3(CCC(=O)[C@H]32)[C@@H](C)[C@@H]1O | Non-Toxic | 0.5 (≈ 0.841 µM) | 4 (≈ 6.73 µM) | 1 (≈ 1.68 µM) | > 64 | Non-Toxic | 4 (≈ 6.73 µM) | 2 (≈ 3.36 µM) | 0.5 (≈ 0.841 µM) | > 64 | 2 (≈ 3.36 µM) | 1 (≈ 1.68 µM) |
| C=C[C@]1(C)C[C@@H](OC(=O)CSc2nnc(C)n2/N=C/c2ccccc2O)[C@]2(C)[C@H](C)CC[C@]3(CCC(=O)[C@H]32)[C@@H](C)[C@@H]1O | Non-Toxic | 0.5 (≈ 0.841 µM) | 4 (≈ 6.73 µM) | 1 (≈ 1.68 µM) | > 64 | Non-Toxic | 4 (≈ 6.73 µM) | 2 (≈ 3.36 µM) | 1 (≈ 1.68 µM) | > 64 | 2 (≈ 3.36 µM) | 1 (≈ 1.68 µM) |
| C=C[C@]1(C)C[C@@H](OC(=O)CSc2nnc(C)n2/N=C/c2ccccc2)[C@]2(C)[C@H](C)CC[C@]3(CCC(=O)[C@H]32)[C@@H](C)[C@@H]1O | Non-Toxic | 0.5 (≈ 0.864 µM) | 4 (≈ 6.91 µM) | 1 (≈ 1.73 µM) | > 64 | Non-Toxic | 4 (≈ 6.91 µM) | 2 (≈ 3.46 µM) | 1 (≈ 1.73 µM) | > 64 | 2 (≈ 3.46 µM) | 1 (≈ 1.73 µM) |
| C=C[C@]1(C)C[C@@H](OC(=O)CSc2nnc(C)n2/N=C/c2ccc(C#N)cc2)[C@]2(C)[C@H](C)CC[C@]3(CCC(=O)[C@H]32)[C@@H](C)[C@@H]1O | Non-Toxic | 1 (≈ 1.66 µM) | 4 (≈ 6.62 µM) | 2 (≈ 3.31 µM) | > 64 | Non-Toxic | 4 (≈ 6.62 µM) | 2 (≈ 3.31 µM) | 1 (≈ 1.66 µM) | > 64 | 4 (≈ 6.62 µM) | 4 (≈ 6.62 µM) |
| C=C[C@]1(C)C[C@@H](OC(=O)CSc2nnc(C)n2/N=C/c2ccc(N3CCOCC3)cc2)[C@]2(C)[C@H](C)CC[C@]3(CCC(=O)[C@H]32)[C@@H](C)[C@@H]1O | Non-Toxic | 0.5 (≈ 0.753 µM) | 4 (≈ 6.03 µM) | 1 (≈ 1.51 µM) | > 64 | Non-Toxic | 4 (≈ 6.03 µM) | 2 (≈ 3.01 µM) | 1 (≈ 1.51 µM) | > 64 | 2 (≈ 3.01 µM) | 1 (≈ 1.51 µM) |
| C=C[C@]1(C)C[C@@H](OC(=O)CSc2nnc(C)n2/N=C/c2cccc(C(F)(F)F)c2)[C@]2(C)[C@H](C)CC[C@]3(CCC(=O)[C@H]32)[C@@H](C)[C@@H]1O | Non-Toxic | 2 (≈ 3.09 µM) | 4 (≈ 6.18 µM) | 2 (≈ 3.09 µM) | > 64 | Non-Toxic | 4 (≈ 6.18 µM) | 4 (≈ 6.18 µM) | 2 (≈ 3.09 µM) | > 64 | 4 (≈ 6.18 µM) | 4 (≈ 6.18 µM) |
| C=C[C@]1(C)C[C@@H](OC(=O)CSc2nnc(C)n2/N=C/c2ccc(Cl)cc2)[C@]2(C)[C@H](C)CC[C@]3(CCC(=O)[C@H]32)[C@@H](C)[C@@H]1O | Non-Toxic | 0.5 (≈ 0.815 µM) | 4 (≈ 6.52 µM) | 1 (≈ 1.63 µM) | > 64 | Non-Toxic | 4 (≈ 6.52 µM) | 2 (≈ 3.26 µM) | 1 (≈ 1.63 µM) | > 64 | 2 (≈ 3.26 µM) | 2 (≈ 3.26 µM) |
| C=C[C@]1(C)C[C@@H](OC(=O)CSc2nnc(C)n2/N=C/c2ccc(F)cc2)[C@]2(C)[C@H](C)CC[C@]3(CCC(=O)[C@H]32)[C@@H](C)[C@@H]1O | Non-Toxic | 1 (≈ 1.68 µM) | 4 (≈ 6.7 µM) | 1 (≈ 1.68 µM) | > 64 | Non-Toxic | 4 (≈ 6.7 µM) | 2 (≈ 3.35 µM) | 1 (≈ 1.68 µM) | > 64 | 4 (≈ 6.7 µM) | 2 (≈ 3.35 µM) |
| C=C[C@]1(C)C[C@@H](OC(=O)CSc2nnc(C)n2/N=C/c2ccccc2[N+](=O)[O-])[C@]2(C)[C@H](C)CC[C@]3(CCC(=O)[C@H]32)[C@@H](C)[C@@H]1O | Non-Toxic | 0.5 (≈ 0.802 µM) | 8 (≈ 12.8 µM) | 2 (≈ 3.21 µM) | > 64 | Non-Toxic | 8 (≈ 12.8 µM) | 2 (≈ 3.21 µM) | 1 (≈ 1.6 µM) | > 64 | 4 (≈ 6.41 µM) | 1 (≈ 1.6 µM) |
| C=C[C@]1(C)C[C@@H](OC(=O)CSc2nnc(C)n2/N=C/c2ccccc2F)[C@]2(C)[C@H](C)CC[C@]3(CCC(=O)[C@H]32)[C@@H](C)[C@@H]1O | Non-Toxic | 0.5 (≈ 0.838 µM) | 4 (≈ 6.7 µM) | 1 (≈ 1.68 µM) | > 64 | Non-Toxic | 4 (≈ 6.7 µM) | 2 (≈ 3.35 µM) | 1 (≈ 1.68 µM) | > 64 | 2 (≈ 3.35 µM) | 1 (≈ 1.68 µM) |
| C=C[C@]1(C)C[C@@H](OC(=O)CSc2nnc(C)n2/N=C/c2cccc(Cl)c2)[C@]2(C)[C@H](C)CC[C@]3(CCC(=O)[C@H]32)[C@@H](C)[C@@H]1O | Non-Toxic | 1 (≈ 1.63 µM) | 4 (≈ 6.52 µM) | 2 (≈ 3.26 µM) | > 64 | Non-Toxic | 4 (≈ 6.52 µM) | 2 (≈ 3.26 µM) | 1 (≈ 1.63 µM) | > 64 | 4 (≈ 6.52 µM) | 2 (≈ 3.26 µM) |
